Laboratory results published in US20050165070A1, “Compositions with a biostimulating activity” (priority 2002, published 2005).

How the values were obtained:
[1] = system: courgettes cv. Diamone; assay: Biostimulating activity on transplanted courgette seedlings in field, fruit yield; type: in vivo; conditions: for Fruit per lot: treatment repeated every 10 days, harvest June 11-August 27, average per lot; for Increase (%) of fruit per lot: with respect to non-treated Thesis F
Description: The following examples are provided for merely illustrative purpose and in no way intend to limit the scope of the present invention.
When the biological activity experimentally found is higher than the value of E, said activity should be considered as a synergic effect.
An amount of 50 g of each compound under examination (thiazolidine-4-carboxylic acid (compound I) and N-acyl-thiazolidine-4-carboxylic acid (compound II)) were dispersed in water (800 cc) and vigorously stirred. An excess of 5%, with respect to the stoichiometric quantity, of sodium bicarbonate, was then added in portions. 150 g of a non-ionic surface-active agent were added to favour application to the leaves. The whole mixture was brought to a volume of 1 liter by the addition of water, in order to obtain solutions of each compound with a concentration of 50 g/liter.
Assessment of the biostimulating activity of compound (I), compound (II) and their synergic mixture.
Seedlings of courgettes cv. Diamone, sown and cultivated in a hot greenhouse, were transplanted in a field (May 11, Leggiuno, (Varese)—Italy).
The theses were randomly arranged in lots with four repetitions for each thesis. Each lot consisted of six plants in rows situated at a distance of 1 meter from each other, and at a distance of 1 meter from each other in the same row.
Weeding was performed before the transplant, using 1 kg/ha of trifluralin (volume 550 l/ha).
At the moment transplanting, the seedlings have a common degree of vegetative development.
In order to minimize transplant stress, the seedlings planted were treated respectively with: • Thesis A: with compound (I) (ATC) at a dose of 5 g/hl; • Thesis B: with compound (I) (ATC) at a dose of 10 g/hl; • Thesis C: with compound (II) (AATC) at a dose of 5 g/hl; • Thesis D: with compound (II) (AATC) at a dose of 10 g/hl; • Thesis E: with compound (I) (ATC) at a dose of 5 g/hl in a mixture with compound (II) (AATC) at a dose of 5 g/hl; • Thesis F: no biostimulating treatment.
Said treatment was subsequently repeated every 10 days, in a preventive manner, in order to oppose any possible thermal or water stress or stress due to vegetative development. Harvesting was effected from June 11 to August 27, and the yield increases indicated in Table 1, were registered in the treated theses (A, B, C, D, E), with respect to the non-treated Thesis F. The yields are obtained from the average amount of fruit obtained in each lot during the above-mentioned harvesting period (June 11-August 27).

[2] = system: peppers cv. Pathos; assay: Biostimulating effect on transplanted pepper seedlings in tunnel, production yield; type: in vivo; conditions: 10 g/hl; for Berries kg per lot: repeated every 10 days, harvest July 29-August 29; for Increase (%) of berries kg per lot: versus not treated Thesis E
Description: The whole mixture was brought to a volume of 1 liter by the addition of water, in order to obtain solutions of each compound with a concentration of 50 g/liter. Determination of the amplification of the biostimulating effect obtained by applying compound (I) in the presence of a solution of proline. Seedlings of peppers cv. Pathos were transplanted in a tunnel (April 16, AT). The lots were distributed according to the random block scheme with 5 repetitions per thesis. Each repetition consisted of 15 plants. At the moment of transplanting, the seedlings have a common degree of vegetative development. […] Said treatment was subsequently repeated every 10 days, in a preventive manner, in order to oppose any possible thermal or water stress or stress due to vegetative development. Harvesting was effected from July 29 for the following 30 days, and a production increase was registered in theses B and D, with respect to theses A and C, as indicated in Table 2. The yields are obtained from the average production obtained during the above harvesting period (July 29-August 29).

SMILES	Fruit per lot ([1]; 5 g/hl)	Increase (%) of fruit per lot ([1]; 5 g/hl)	Fruit per lot ([1]; 10 g/hl)	Increase (%) of fruit per lot ([1]; 10 g/hl)	Berries kg per lot [2]	Increase (%) of berries kg per lot [2]
CC(=O)N1CSCC1C(=O)O (stereo not drawn) [AATC, N-acetylthiazolidine-4-carboxylic acid]	102	+5.2%	109	+12.4%	26.40 kg per lot	+6.9%
O=C(O)[C@@H]1CSCN1 [ATC, R-(−)-thiazolidine-4-carboxylic acid]	100	+3.1%	105	+8.2%	25.80 kg per lot	+4.5%
